Assay [1] has as its system SKBR3 (PI3Kα-Wild Type) cell line. The assay is described as follows: HTRF phospho-AKT(S473) cell assay in SKBR3 cells. The format is cell-based, human. An outline of the steps:
(§1)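 Cells plated overnight (T47D in RPMI/10% FBS/0.2 units/mL insulin; SKBR3 in McCoy's 5A/10% FBS), then given 12-point 1:3 compound series (top 5 μM T47D, 10 μM SKBR3; ≤0.5% DMSO) for 2 h at 37° C. SKBR3 stimulated with 70 ng/ml PDGF-BB for final 15 min. Lysate pAKT(S473) by HTRF; IC50 calculated.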

Assay [2] relates to T47D (PI3Kα-H1047R) cell line. The assay is described as follows: HTRF phospho-AKT(S473) cell assay in T47D cells. Format: cell-based, human. The method, boiled down:
as §1

[3] abbreviates: Homo sapiens, SK-BR-3; SKBR3 (PI3Kα-Wild Type) cells, HTRF phospho-AKT(S473), 2 hours compound incubation, PDGF-BB stimulated.
Where [4] appears, read: Homo sapiens; T47D (PI3Kα-H1047R) cells, HTRF phospho-AKT(S473), 2 hours compound incubation.
Setting [5] is: Homo sapiens, SK-BR-3; HTRF phospho-AKT(S473), SKBR3 (PI3Kα-Wild Type) cells, 2 hours compound incubation, PDGF-BB stimulated.
Where [6] appears, read: Homo sapiens; HTRF phospho-AKT(S473), T47D (PI3Kα-H1047R) cells, 2 hours compound incubation.

As usually defined, the IC50 is the concentration needed to halve the response being measured. A lower IC50 goes with higher potency.

With `Cc1cc([C@@H](C)Nc2ccc(Cl)nc2C(=O)NS(C)(=O)=O)c2nc(N3C[C@@H]4[C@H](C3)[C@H]4c3cncc(C)n3)n(C)c(=O)c2c1` [Compound 418, 6-chloro-3-(((R)-1-(3,6-dimethyl-2-((1R,5S,6R)-6-(6-methylpyrazin-2-yl)-3-azabicyclo[3.1.0]hexan-3-yl)-4-oxo-3,4-dihydroquinazolin-8-yl)ethyl)amino)-N-(methylsulfonyl) picolinamide], the results for the IC50 in assay [1] (setting [3]) and in assay [2] (setting [4]) were 1000 to 5000 nM and below 250 nM, respectively.
Regarding `Cc1cc([C@@H](C)Nc2ccc(Cl)nc2C(=O)NS(C)(=O)=O)c2nc(N3Cc4cnc(C)cc4C3)n(C)c(=O)c2c1` [Compound 516, (R)-6-chloro-3-((1-(3,6-dimethyl-2-(6-methyl-1,3-dihydro-2H-pyrrolo[3,4-c]pyridin-2-yl)-4-oxo-3,4-dihydroquinazolin-8-yl)ethyl)amino)-N-(methylsulfonyl) picolinamide], the IC50 was 1000 to 5000 nM in assay [1] (setting [5]) and below 250 nM in assay [2] (setting [6]).
As to `Cc1cc([C@@H](C)Nc2ccc(Cl)nc2C(=O)NS(C)(=O)=O)c2nc(N3CCC(n4ncc5ccncc54)CC3)n(C)c(=O)c2c1` [Compound 258], the IC50 in assay [1] (setting [3]) was 1000 to 5000 nM; in assay [2] (setting [4]), below 250 nM.
Take `Cc1cc([C@@H](C)Nc2ccc(Cl)nc2C(=O)NS(C)(=O)=O)c2nc(N3CCC[C@@H](c4ccccn4)C3)n(C)c(=O)c2c1` (relative stereo) [Compound 208, 6-chloro-3-(((R)-1-(3,6-dimethyl-4-oxo-2-((R*)-3-(pyridin-2-yl)piperidin-1-yl)-3,4-dihydroquinazolin-8-yl)ethyl)amino)-N-(methylsulfonyl) picolinamide]: the IC50 in assay [1] (setting [3]) was at least 5000 nM; in assay [2] (setting [4]), 250 to 500 nM.
The matching figures for `Cc1cc([C@@H](C)Nc2ccc(Cl)nc2C(=O)NS(C)(=O)=O)c2nc(-c3ccc(-c4ccn(C)n4)nc3)n(C)c(=O)c2c1` [Compound 243, (R)-6-chloro-3-((1-(3,6-dimethyl-2-(6-(1-methyl-1H-pyrazol-3-yl)pyridin-3-yl)-4-oxo-3,4-dihydroquinazolin-8-yl)ethyl)amino)-N-(methylsulfonyl) picolinamide]: 1000 to 5000 nM and below 250 nM.
On to `CO[C@H]1C[C@@H](S(=O)(=O)NC(=O)c2nc(Cl)ccc2N[C@H](C)c2cc(C)cc3c(=O)n(C)c(N4Cc5ccc(F)cc5C4)nc23)C1` [Compound 378, 6-chloro-3-(((R)-1-(2-(5-fluoroisoindolin-2-yl)-3,6-dimethyl-4-oxo-3,4-dihydroquinazolin-8-yl)ethyl)amino)-N-(((1s,3S)-3-methoxycyclobutyl)sulfonyl)picolinamide], for which the IC50 in assay [1] (setting [3]) was at least 5000 nM; in assay [2] (setting [4]), 250 to 500 nM.
For `Cc1cc([C@@H](C)Nc2ccc(Cl)nc2C(=O)NS(C)(=O)=O)c2nc(N3C[C@@H]4[C@H](C3)[C@H]4c3noc(C)n3)n(C)c(=O)c2c1` [Compound 465, 6-chloro-3-(((R)-1-(3,6-dimethyl-2-((1R,5S,6R)-6-(5-methyl-1,2,4-oxadiazol-3-yl)-3-azabicyclo[3.1.0]hexan-3-yl)-4-oxo-3,4-dihydroquinazolin-8-yl)ethyl)amino)-N-(methylsulfonyl) picolinamide], the figures for the concentration for half-maximal inhibition (IC50) in assay [1] (setting [5]) and in assay [2] (setting [6]) were 1000 to 5000 nM and below 250 nM, respectively.
For the compound `Cc1cc([C@@H](C)Nc2ccc(Cl)nc2C(=O)NS(C)(=O)=O)c2nc(N3C[C@@H]4C(c5ccnc(C)c5F)[C@@H]4C3)n(C)c(=O)c2c1` (stereo partly drawn) [Compound 763, 6-chloro-3-(((1R)-1-(2-((1R,5S)-6-(3-fluoro-2-methylpyridin-4-yl)-3-azabicyclo[3.1.0]hexan-3-yl)-3,6-dimethyl-4-oxo-3,4-dihydroquinazolin-8-yl)ethyl)amino)-N-(methylsulfonyl) picolinamide], the results for the 50% inhibitory concentration (IC50) in assay [1] (setting [5]) and in assay [2] (setting [6]) were 1000 to 5000 nM and 250 to 500 nM, respectively.
The matching figures for `CCn1cc(F)c(C2CCN(c3nc4c([C@@H](C)Nc5ccc(Cl)nc5C(=O)NS(C)(=O)=O)cc(C)cc4c(=O)n3C)CC2)n1` [Compound 758, (R)-6-chloro-3-((1-(2-(4-(1-ethyl-4-fluoro-1H-pyrazol-3-yl)piperidin-1-yl)-3,6-dimethyl-4-oxo-3,4-dihydroquinazolin-8-yl)ethyl)amino)-N-(methylsulfonyl) picolinamide]: at least 5000 nM and 250 to 500 nM.
As to `Cc1cc([C@@H](C)Nc2ccc(Cl)nc2C(=O)NS(C)(=O)=O)c2nc(N3CCC(n4cc(-c5cccnc5)cn4)CC3)n(C)c(=O)c2c1` [Compound 234, (R)-6-chloro-3-((1-(3,6-dimethyl-4-oxo-2-(4-(4-(pyridin-3-yl)-1H-pyrazol-1-yl)piperidin-1-yl)-3,4-dihydroquinazolin-8-yl)ethyl)amino)-N-(methylsulfonyl) picolinamide], the half-inhibitory concentration (IC50) in assay [1] (setting [3]) was 1000 to 5000 nM; in assay [2] (setting [4]), below 250 nM.
Consider `CC(=O)Nc1ccc(C2CCN(c3nc4c([C@@H](C)Nc5ccc(Cl)nc5C(=O)NS(C)(=O)=O)cc(C)cc4c(=O)n3C)CC2)cn1` [Compound 254, (R)-3-((1-(2-(4-(6-acetamidopyridin-3-yl)piperidin-1-yl)-3,6-dimethyl-4-oxo-3,4-dihydroquinazolin-8-yl)ethyl)amino)-6-chloro-N-(methylsulfonyl) picolinamide], for which the IC50 in assay [1] (setting [3]) was 1000 to 5000 nM; in assay [2] (setting [4]), below 250 nM.
Consider `Cc1cc([C@@H](C)Nc2ccc(Cl)nc2C(=O)NS(C)(=O)=O)c2nc(N3CCC(n4ncc(F)c4C)CC3)n(C)c(=O)c2c1` [Compound 712, (R)-6-chloro-3-((1-(2-(4-(4-fluoro-5-methyl-1H-pyrazol-1-yl)piperidin-1-yl)-3,6-dimethyl-4-oxo-3,4-dihydroquinazolin-8-yl)ethyl)amino)-N-(methylsulfonyl) picolinamide], for which the figures for the IC50 in assay [1] (setting [5]) and in assay [2] (setting [6]) were 1000 to 5000 nM and below 250 nM, respectively.
Take `Cc1cc([C@@H](C)Nc2ccc(Cl)nc2C(=O)NS(C)(=O)=O)c2nc(C3CCN(c4ccccc4)CC3)n(C)c(=O)c2c1` [Compound 831, (R)-6-chloro-3-((1-(3,6-dimethyl-4-oxo-2-(1-phenylpiperidin-4-yl)-3,4-dihydroquinazolin-8-yl)ethyl)amino)-N-(methylsulfonyl) picolinamide]: the IC50 in assay [1] (setting [5]) fell in the range of 1000 to 5000 nM; in assay [2] (setting [6]), 250 to 500 nM.
Take `COc1cc(C2CCN(c3nc4c([C@@H](C)Nc5ccc(Cl)nc5C(=O)NS(C)(=O)=O)cc(C)cc4c(=O)n3C)CC2)ccn1` [Compound 640, (R)-6-chloro-3-((1-(2-(4-(2-methoxypyridin-4-yl)piperidin-1-yl)-3,6-dimethyl-4-oxo-3,4-dihydroquinazolin-8-yl)ethyl)amino)-N-(methylsulfonyl) picolinamide]: the IC50 in assay [1] (setting [5]) is at least 5000 nM; in assay [2] (setting [6]) it was 250 to 500 nM.
Turning to `Cc1cc([C@@H](C)Nc2ccc(Cl)nc2C(=O)NS(C)(=O)=O)c2nc(N3CCC(c4ccc(C)nn4)CC3)n(C)c(=O)c2c1` [Compound 264, (R)-6-chloro-3-((1-(3,6-dimethyl-2-(4-(6-methylpyridazin-3-yl)piperidin-1-yl)-4-oxo-3,4-dihydroquinazolin-8-yl)ethyl)amino)-N-(methylsulfonyl) picolinamide], the concentration for half-maximal inhibition (IC50) in assay [1] (setting [3]) was 1000 to 5000 nM; in assay [2] (setting [4]), below 250 nM.
`Cc1cc([C@@H](C)Nc2ccc(Cl)nc2C(=O)NS(C)(=O)=O)c2nc(N3CC[C@@H](c4cnc(C)nc4)C3)n(C)c(=O)c2c1` (relative stereo) [Compound 657, 6-chloro-3-(((R)-1-(3,6-dimethyl-2-((R*)-3-(2-methylpyrimidin-5-yl)pyrrolidin-1-yl)-4-oxo-3,4-dihydroquinazolin-8-yl)ethyl)amino)-N-(methylsulfonyl) picolinamide]: the IC50 in assay [1] (setting [5]) is at least 5000 nM; in assay [2] (setting [6]), 250 to 500 nM.
`COc1nccc(N2C[C@@H]3C[C@H]2CN3c2nc3c([C@@H](C)Nc4ccc(Cl)nc4C(=O)NS(C)(=O)=O)cc(C)cc3c(=O)n2C)n1` [Compound 581, 6-chloro-3-(((R)-1-(2-((1S,4S)-5-(2-methoxypyrimidin-4-yl)-2,5-diazabicyclo [2.2.1]heptan-2-yl)-3,6-dimethyl-4-oxo-3,4-dihydroquinazolin-8-yl)ethyl)amino)-N-(methylsulfonyl) picolinamide]: the half-inhibitory concentration (IC50) in assay [1] (setting [5]) was at least 5000 nM; in assay [2] (setting [6]) it was 250 to 500 nM.
Consider `Cc1cc([C@@H](C)Nc2ccc(Cl)nc2C(=O)NS(C)(=O)=O)c2nc(N3C[C@@H]4[C@H](C3)[C@H]4c3cnc(C(F)F)nc3)n(C)c(=O)c2c1` [Compound 522, 6-chloro-3-(((R)-1-(2-((1R,5S,6S)-6-(2-(difluoromethyl)pyrimidin-5-yl)-3-azabicyclo[3.1.0]hexan-3-yl)-3,6-dimethyl-4-oxo-3,4-dihydroquinazolin-8-yl)ethyl)amino)-N-(methylsulfonyl) picolinamide], for which the values for the IC50 in assay [1] (setting [5]) and in assay [2] (setting [6]) were 1000 to 5000 nM and below 250 nM, respectively.
In the case of `COc1nc(C2CCN(c3nc4c([C@@H](C)Nc5ccc(Cl)nc5C(=O)NS(C)(=O)=O)cc(C)cc4c(=O)n3C)CC2)ncc1C` [Compound 562, (R)-6-chloro-3-((1-(2-(4-(4-methoxy-5-methylpyrimidin-2-yl)piperidin-1-yl)-3,6-dimethyl-4-oxo-3,4-dihydroquinazolin-8-yl)ethyl)amino)-N-(methylsulfonyl) picolinamide], the half-inhibitory concentration (IC50) in assay [1] (setting [5]) was at least 5000 nM; in assay [2] (setting [6]) it was 250 to 500 nM.
